Laboratory results reported in ChEMBL document CHEMBL4507319 (2021).
Activity calls are given as the source filed them. The calls are words filed in the database; no cut-off is given here.

Assays:
[1] = molecular target: Glycogen synthase kinase-3 alpha (Homo sapiens) (UniProt P49840); conditions: Compound concentration 1000.0 nM
[2] = system: Receptor-type tyrosine-protein kinase FLT3 (Homo sapiens), P36888 [N841I]; conditions: Compound concentration 1000.0 nM
[3] = molecular target: Serine/threonine-protein kinase 32A (Homo sapiens) (UniProt Q8WU08); conditions: Compound concentration 1000.0 nM
[4] = molecular target: Calcium/calmodulin-dependent protein kinase type II subunit alpha (Homo sapiens) (UniProt Q9UQM7); conditions: Compound concentration 1000.0 nM
[5] = molecular target: Ribosomal protein S6 kinase alpha-3 (Homo sapiens, UniProt P51812); conditions: Compound concentration 1000.0 nM
[6] = molecular target: Mitogen-activated protein kinase kinase kinase kinase 2 (Homo sapiens) (UniProt Q12851); conditions: Compound concentration 1000.0 nM
[7] = molecular target: T1, Ephrin type-A receptor 3 (Homo sapiens) (UniProt P29320); conditions: Compound concentration 1000.0 nM
T1 sequence (whole entry): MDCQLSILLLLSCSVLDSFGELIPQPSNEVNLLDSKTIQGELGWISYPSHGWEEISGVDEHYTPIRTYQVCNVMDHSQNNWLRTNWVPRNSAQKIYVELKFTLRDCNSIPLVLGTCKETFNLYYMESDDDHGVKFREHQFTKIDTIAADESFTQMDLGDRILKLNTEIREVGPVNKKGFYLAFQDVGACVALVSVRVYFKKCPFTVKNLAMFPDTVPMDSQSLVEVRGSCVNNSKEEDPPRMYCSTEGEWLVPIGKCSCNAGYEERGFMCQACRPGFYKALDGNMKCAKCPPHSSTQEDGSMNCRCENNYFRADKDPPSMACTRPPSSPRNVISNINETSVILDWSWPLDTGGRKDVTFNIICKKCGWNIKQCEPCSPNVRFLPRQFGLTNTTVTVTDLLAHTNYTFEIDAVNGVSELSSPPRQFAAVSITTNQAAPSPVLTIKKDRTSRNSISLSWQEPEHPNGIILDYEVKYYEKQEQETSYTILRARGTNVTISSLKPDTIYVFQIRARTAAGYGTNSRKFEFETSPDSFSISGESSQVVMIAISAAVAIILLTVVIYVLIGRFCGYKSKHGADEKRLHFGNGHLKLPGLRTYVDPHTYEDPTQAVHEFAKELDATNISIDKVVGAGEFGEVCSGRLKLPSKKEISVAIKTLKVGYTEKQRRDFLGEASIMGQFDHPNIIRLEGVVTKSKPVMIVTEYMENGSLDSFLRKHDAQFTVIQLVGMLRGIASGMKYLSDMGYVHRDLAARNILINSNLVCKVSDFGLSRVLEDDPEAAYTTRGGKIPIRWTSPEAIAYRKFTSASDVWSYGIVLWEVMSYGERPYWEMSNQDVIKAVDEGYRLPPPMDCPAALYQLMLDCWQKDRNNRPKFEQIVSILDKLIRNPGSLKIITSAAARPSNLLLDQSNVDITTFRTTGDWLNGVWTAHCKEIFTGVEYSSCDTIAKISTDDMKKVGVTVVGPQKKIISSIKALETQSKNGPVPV

[8] = molecular target: Platelet-derived growth factor receptor alpha (Homo sapiens) (UniProt P16234); conditions: Compound concentration 1000.0 nM
[9] = molecular target: T2, Discoidin domain-containing receptor 2 (Homo sapiens) (UniProt Q16832); conditions: Compound concentration 1000.0 nM
T2 sequence (whole entry): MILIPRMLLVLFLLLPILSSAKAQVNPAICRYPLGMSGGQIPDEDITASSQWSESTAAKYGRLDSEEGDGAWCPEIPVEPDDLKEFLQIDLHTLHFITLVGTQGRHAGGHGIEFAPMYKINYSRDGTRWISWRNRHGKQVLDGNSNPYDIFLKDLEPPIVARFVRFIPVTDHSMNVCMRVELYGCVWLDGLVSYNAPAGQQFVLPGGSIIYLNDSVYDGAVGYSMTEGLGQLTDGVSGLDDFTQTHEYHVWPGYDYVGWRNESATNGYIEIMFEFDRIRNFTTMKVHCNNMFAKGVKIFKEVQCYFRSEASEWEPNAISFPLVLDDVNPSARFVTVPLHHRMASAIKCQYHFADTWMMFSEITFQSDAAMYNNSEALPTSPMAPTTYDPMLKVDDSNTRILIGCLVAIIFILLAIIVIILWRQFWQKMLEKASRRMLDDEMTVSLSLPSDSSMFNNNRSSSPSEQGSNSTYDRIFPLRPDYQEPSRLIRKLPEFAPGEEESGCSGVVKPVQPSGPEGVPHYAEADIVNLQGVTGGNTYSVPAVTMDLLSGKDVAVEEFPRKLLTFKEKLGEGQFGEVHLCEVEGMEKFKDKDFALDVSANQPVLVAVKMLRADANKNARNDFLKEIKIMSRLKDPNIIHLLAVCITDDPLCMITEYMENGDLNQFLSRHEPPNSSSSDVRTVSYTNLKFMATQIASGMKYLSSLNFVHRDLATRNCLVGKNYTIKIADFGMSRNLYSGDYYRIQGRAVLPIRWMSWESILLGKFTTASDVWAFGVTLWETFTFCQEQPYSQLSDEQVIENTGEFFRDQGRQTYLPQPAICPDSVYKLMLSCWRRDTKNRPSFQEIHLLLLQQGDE

[10] = molecular target: 5'-AMP-activated protein kinase catalytic subunit alpha-1 (Homo sapiens, UniProt Q13131); assay: Biochemical PRKAA1 assay with 2 mM ATP (Bayer in house)
[11] = molecular target: Cyclin-dependent kinase 9 (Homo sapiens) (UniProt P50750); conditions: Compound concentration 1000.0 nM
Chain of Cyclin-dependent kinase 9 (Homo sapiens) (P50750 whole entry): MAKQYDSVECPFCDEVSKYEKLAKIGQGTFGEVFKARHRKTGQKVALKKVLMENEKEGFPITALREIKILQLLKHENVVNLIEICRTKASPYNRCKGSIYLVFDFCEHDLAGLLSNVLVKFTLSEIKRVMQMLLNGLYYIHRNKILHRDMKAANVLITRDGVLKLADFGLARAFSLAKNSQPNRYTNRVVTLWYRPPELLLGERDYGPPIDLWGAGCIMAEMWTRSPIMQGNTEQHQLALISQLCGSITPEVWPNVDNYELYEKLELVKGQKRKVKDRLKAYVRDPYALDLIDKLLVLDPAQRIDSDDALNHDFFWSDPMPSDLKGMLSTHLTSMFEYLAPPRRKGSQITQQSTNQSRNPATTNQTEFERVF

Chain of Platelet-derived growth factor receptor alpha (Homo sapiens) (P16234 whole entry, the tested form may be a part): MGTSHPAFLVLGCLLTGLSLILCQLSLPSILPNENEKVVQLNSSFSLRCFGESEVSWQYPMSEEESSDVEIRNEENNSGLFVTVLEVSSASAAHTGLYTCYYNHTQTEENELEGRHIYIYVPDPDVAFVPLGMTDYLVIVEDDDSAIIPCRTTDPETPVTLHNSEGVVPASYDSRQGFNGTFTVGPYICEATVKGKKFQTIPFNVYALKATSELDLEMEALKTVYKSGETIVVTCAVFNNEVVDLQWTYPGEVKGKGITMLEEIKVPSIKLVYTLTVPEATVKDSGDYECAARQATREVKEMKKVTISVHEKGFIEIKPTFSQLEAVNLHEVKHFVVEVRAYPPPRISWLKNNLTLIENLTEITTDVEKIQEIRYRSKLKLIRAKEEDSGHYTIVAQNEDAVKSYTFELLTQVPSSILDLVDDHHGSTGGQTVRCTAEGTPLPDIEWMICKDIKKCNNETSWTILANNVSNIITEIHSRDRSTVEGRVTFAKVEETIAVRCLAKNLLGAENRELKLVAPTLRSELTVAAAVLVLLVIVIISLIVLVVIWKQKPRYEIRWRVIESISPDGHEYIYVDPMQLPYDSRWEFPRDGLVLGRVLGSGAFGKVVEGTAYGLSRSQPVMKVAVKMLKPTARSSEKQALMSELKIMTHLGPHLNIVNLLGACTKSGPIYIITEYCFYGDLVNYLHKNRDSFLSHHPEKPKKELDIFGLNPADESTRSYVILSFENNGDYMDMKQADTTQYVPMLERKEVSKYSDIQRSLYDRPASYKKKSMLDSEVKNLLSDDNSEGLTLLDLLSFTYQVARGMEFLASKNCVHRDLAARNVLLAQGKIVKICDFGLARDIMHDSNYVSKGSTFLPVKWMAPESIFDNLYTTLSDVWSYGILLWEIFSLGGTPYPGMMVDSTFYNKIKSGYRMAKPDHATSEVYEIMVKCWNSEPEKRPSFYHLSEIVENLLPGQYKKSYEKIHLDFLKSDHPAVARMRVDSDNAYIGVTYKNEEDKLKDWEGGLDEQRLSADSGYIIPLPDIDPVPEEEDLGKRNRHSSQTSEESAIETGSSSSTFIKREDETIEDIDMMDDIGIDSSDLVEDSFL
Chain of Mitogen-activated protein kinase kinase kinase kinase 2 (Homo sapiens) (Q12851 whole entry): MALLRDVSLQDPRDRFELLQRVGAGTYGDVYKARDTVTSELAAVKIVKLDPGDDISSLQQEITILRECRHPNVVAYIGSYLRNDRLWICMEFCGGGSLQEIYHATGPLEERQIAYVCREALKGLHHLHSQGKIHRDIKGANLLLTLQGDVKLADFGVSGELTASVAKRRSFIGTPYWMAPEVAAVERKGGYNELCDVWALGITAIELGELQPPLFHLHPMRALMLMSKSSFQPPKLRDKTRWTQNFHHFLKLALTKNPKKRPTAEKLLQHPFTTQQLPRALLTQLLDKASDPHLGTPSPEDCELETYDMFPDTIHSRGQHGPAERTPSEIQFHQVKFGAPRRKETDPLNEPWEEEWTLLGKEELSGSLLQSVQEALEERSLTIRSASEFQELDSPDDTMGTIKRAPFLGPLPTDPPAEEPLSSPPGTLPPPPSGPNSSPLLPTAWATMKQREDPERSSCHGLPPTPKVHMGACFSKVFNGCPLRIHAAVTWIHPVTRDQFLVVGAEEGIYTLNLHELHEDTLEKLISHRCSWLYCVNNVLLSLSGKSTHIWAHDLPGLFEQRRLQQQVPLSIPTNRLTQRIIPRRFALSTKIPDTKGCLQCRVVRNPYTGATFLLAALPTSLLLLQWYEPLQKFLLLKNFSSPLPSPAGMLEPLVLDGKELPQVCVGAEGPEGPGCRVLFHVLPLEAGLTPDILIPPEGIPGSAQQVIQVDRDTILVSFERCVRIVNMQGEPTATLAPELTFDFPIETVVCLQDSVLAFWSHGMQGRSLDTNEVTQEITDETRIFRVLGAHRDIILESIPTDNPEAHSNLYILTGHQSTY
Chain of Calcium/calmodulin-dependent protein kinase type II subunit alpha (Homo sapiens) (Q9UQM7 whole entry): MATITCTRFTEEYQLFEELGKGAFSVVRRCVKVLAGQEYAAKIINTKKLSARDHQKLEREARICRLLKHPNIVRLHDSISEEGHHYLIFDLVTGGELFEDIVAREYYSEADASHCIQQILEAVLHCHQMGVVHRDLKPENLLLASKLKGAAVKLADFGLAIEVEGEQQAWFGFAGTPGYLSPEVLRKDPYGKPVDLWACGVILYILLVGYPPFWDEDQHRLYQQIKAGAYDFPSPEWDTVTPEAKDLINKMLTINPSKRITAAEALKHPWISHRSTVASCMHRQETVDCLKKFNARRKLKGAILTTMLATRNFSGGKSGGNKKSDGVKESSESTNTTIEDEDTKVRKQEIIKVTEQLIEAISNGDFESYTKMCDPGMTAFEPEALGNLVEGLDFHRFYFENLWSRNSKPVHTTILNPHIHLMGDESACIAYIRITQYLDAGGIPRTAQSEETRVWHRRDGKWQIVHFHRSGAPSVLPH
Chain of 5'-AMP-activated protein kinase catalytic subunit alpha-1 (Q13131 whole entry): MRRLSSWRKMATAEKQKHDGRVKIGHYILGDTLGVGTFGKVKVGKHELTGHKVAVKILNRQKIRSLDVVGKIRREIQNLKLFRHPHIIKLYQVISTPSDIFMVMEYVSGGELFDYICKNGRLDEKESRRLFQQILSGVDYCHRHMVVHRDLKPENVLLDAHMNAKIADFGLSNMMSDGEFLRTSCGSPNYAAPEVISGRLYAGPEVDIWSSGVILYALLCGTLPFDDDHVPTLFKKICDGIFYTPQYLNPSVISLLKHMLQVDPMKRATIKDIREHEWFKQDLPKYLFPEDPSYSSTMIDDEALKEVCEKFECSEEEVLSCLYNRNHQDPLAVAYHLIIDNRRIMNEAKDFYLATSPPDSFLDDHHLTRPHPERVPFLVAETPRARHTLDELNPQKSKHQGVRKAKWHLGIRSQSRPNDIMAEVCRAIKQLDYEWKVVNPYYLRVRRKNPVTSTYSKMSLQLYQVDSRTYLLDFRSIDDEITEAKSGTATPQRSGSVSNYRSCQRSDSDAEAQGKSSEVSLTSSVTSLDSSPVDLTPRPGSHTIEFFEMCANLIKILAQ
Chain of Serine/threonine-protein kinase 32A (Homo sapiens) (Q8WU08 whole entry): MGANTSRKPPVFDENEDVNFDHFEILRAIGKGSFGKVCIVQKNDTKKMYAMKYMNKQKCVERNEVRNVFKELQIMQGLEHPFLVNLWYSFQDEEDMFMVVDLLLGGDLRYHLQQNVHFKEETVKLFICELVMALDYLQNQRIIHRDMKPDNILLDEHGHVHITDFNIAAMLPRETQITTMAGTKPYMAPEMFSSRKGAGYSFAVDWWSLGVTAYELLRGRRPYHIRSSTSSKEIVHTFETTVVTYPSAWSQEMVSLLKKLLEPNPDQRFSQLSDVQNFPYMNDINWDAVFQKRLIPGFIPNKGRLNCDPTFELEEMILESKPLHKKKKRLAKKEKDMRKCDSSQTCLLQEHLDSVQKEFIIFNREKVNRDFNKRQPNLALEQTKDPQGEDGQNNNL
Chain of Ribosomal protein S6 kinase alpha-3 (P51812 whole entry): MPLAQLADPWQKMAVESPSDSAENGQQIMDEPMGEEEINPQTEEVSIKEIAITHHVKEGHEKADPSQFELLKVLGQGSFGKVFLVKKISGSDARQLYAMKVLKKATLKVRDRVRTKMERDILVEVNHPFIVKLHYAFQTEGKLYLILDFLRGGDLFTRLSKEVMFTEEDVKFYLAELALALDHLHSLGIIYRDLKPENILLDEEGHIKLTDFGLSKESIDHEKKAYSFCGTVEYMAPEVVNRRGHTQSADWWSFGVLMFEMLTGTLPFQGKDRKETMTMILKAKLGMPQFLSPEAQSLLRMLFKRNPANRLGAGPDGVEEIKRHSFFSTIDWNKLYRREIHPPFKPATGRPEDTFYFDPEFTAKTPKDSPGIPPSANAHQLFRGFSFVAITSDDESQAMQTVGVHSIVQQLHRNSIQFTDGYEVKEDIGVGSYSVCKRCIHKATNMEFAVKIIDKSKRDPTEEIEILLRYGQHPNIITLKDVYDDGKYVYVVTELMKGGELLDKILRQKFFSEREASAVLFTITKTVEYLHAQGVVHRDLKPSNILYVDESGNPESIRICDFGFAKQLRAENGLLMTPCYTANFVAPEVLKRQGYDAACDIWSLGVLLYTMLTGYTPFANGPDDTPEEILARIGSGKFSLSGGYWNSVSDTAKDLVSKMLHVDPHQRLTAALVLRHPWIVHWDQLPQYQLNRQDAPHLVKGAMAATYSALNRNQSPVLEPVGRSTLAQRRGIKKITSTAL
Chain of Glycogen synthase kinase-3 alpha (Homo sapiens) (P49840 2-483 limits assumed): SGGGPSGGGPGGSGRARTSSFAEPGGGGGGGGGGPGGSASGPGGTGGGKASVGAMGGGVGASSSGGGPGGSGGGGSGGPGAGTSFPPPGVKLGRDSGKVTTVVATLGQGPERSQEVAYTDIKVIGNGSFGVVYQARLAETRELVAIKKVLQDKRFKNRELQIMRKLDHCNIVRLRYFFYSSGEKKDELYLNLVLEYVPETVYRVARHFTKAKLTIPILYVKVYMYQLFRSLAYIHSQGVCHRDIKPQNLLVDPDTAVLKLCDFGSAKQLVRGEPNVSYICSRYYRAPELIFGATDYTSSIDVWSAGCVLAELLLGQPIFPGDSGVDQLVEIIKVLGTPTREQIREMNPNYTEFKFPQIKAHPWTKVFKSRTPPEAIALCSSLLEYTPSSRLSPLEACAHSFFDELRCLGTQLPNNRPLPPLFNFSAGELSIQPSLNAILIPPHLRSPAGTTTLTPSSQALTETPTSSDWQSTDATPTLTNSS

SMILES	residual activity [1] [%]	residual activity [2] [%]	residual activity [3] [%]	residual activity [4] [%]	residual activity [5] [%]	residual activity [6] [%]	residual activity [7] [%]	residual activity [8] [%]	residual activity [9] [%]	IC50 [10]	residual activity [11] [%]
CCc1ccccc1C(=O)Nc1n[nH]c2c(C)c(F)c(C3C(C#N)=C(C)N(C)C(C)=C3C#N)cc12 [BAY-3827]	90	0	100	47	0.3	100	100	100	100	0.015 µM (active)	94
CC1=C(C#N)C(c2ccc3c(c2)c(NC(=O)c2ccccc2C)nn3C)C(C#N)=C(C)N1 [BAY-974]	100	74	95	90	86	99	99	86	86	> 20 µM (not active)	100
